Laboratory results as given in patent publication US10758511B2, “Stable analogs of CYP450 lipid metabolites and inhibitors of soluble epoxide hydrolase” (Massachusetts Eye and Ear Infirmary, priority 2015, dated 2020).
Values after ≈ are worked out from the molar mass of the structure shown. Marks after values point to notes of the source that are not given here. One block for each molecule: values may come before it.

Experiments:
[1] = Formulations of selected inhibitors of sEH (mg/mL); assay type: physicochemical
[2] = Solubility in sodium phosphate buffer (pH7.4); assay type: physicochemical; conditions: pH 7.4, aqueous buffer, Mean ± SD (n = 3)
[3] = target: T1, Rat sEH (Rattus norvegicus, UniProt P80299); test: sEH inhibition (IC50), fluorescent substrate CMNPC; assay type: biochemical; conditions: CMNPC as a substrate; ureas found in Brassicales
T1 sequence (P80299 1-554): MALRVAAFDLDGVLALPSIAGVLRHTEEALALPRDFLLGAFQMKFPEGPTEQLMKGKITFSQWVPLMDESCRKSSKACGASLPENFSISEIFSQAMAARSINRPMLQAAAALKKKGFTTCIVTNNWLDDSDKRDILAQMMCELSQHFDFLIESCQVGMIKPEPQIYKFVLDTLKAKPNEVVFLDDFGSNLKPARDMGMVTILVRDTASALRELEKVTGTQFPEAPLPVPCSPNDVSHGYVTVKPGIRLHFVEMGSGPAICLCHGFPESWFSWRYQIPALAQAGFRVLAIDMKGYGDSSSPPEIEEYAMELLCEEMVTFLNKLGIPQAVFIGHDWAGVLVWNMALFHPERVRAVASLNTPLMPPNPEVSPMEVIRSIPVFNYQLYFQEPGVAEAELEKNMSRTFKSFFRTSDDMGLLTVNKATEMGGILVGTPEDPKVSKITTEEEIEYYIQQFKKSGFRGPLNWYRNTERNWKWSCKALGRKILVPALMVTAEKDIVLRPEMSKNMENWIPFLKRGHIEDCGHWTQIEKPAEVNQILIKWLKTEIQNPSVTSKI

[4] = system: peripheral blood leukocytes (PBLs); test: Autoperfused microflow chamber assay, leukocyte rolling velocity; assay type: in vivo, mouse; conditions: chamber coated with ICAM-1 and P-selectin, 50 μg/kg/day i.p., day 3 after CNV induction
Protocol: A combination of intercellular adhesion molecule 1 (ICAM-1) and P-selectin (R&D Systems), each at a concentration of 5 μg/mL, was used to coat translucent microchambers (0.4×0.04×50 mm, VitroCom) overnight at 4° C. Biocompatible polyester tubing (PE10; Becton Dickinson) was attached to both ends of each microchamber, and the apparatus was subsequently incubated for 1 hour with 0.1% BSA (Sigma-Aldrich) in order to prevent nonspecific leukocyte interaction with the inner surface of the apparatus. The left jugular vein and right carotid artery in an anesthetized mouse were surgically connected to the free ends of both tubes, thus allowing blood to flow from the right carotid artery and into the microchamber (via the inlet tube), and then into the left jugular vein (via the outlet tube) for recirculation. Blood flow rate through the microchamber was controlled via a screw valve on the inlet tube that could change the tube diameter. For continuous blood pressure measurements, three-way connectors were used to embed microtransducers (Harvard Apparatus) before and after the microchamber. Digitizing the analog output from these microtransducers required an A/D converter (ML785 PowerLab/8SP; ADInstruments) linked to a computer running CHART V7 software (ADInstruments). […] A fixed-stage intravital microscope (Leica) with a 63× objective and a monochromic camera (DFC 360 FX; Leica) were used to observe and record leukocyte rolling along immobilized adhesion molecules. Recordings lasted at least 30 s and incorporated ten different fields of view. Using ImageJ software, leukocyte rolling velocity was calculated based on individual cell displacement along the surface of the chamber over time (i.e., Δd/Δt). Flux was calculated as the mean number of leukocytes interacting with the chamber surface per field of view (i.e., average of 10 independent fields of view).
Autoperfused Microflow Chamber assay was used to assess the impact of 17,18-EEQ and 19,20-EDP on systemic leukocyte recruitment during CNV development. The rolling velocity of peripheral blood leukocytes (PBLs) in the circulating blood was measured 3 days post CNV induction, as this reflects the peak of immune cell infiltration in this model.

[5] = target: T2, Human sEH (Homo sapiens, UniProt P34913); test: sEH inhibition (IC50), fluorescent substrate CMNPC; assay type: biochemical; conditions: CMNPC as a substrate; ureas found in Brassicales
T2 sequence (P34913 1-555): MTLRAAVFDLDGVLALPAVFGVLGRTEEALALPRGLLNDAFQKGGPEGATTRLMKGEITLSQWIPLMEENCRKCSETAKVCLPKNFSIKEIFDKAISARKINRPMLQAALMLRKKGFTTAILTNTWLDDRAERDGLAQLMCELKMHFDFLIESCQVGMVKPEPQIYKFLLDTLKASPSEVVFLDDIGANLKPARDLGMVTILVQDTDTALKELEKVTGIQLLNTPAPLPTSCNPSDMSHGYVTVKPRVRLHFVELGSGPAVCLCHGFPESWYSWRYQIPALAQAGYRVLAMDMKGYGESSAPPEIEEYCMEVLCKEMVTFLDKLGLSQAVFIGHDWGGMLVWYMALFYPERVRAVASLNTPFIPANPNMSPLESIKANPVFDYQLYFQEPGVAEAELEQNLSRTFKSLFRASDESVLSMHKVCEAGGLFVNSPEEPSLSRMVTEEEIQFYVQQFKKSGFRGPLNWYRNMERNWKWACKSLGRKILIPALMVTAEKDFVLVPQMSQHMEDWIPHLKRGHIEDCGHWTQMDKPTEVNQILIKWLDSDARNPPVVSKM

[6] = system: C57BL/6 mice; test: Laser-induced CNV model (flat-mount, SD-OCT, fluorescein angiography); assay type: in vivo, mouse; conditions: for CNV size or severity compared to base line controls: EETs once a day after laser photocoagulation
Description: J Med Chem 54(12):4109-4118).

[7] = sodium phosphate buffer (pH7.4); data from Kitamura et al., (2015); cited from earlier work
[8] = physchem
[9] = system: E-selectin; test: Real-time PCR of E-selectin mRNA in laser-captured CNV lesions; assay type: in vivo, mouse; conditions: 50 μg/kg/day i.p., 7 days post CNV induction
Protocol: Immediately after enucleation, mouse eyes were placed in optimum cutting temperature (OCT) compound and swiftly frozen. Under RNase-free conditions, eyes were cryosectioned (10 μm thickness per section) and mounted on polyethylene naphthalate glass slides (Leica). After dehydrating with washes of 50, 75, and 100% ethanol, the slides were stained with isolectin B4 at a dilution of 1:50 in 1 mM CaCl2. Laser-capture microdissection (Leica LMD 7000 system) was used to isolate chorioretinal vessels in CNV lesions, which were then placed in RNA-stabilizing buffer (RNeasy Micro Kit; Qiagen). […] Real-time PCR was conducted on a StepOne real-time PCR System (Applied Biosystems) with mouse TaqMan expression assays for the following genes (Applied Biosystems): E-selectin (Mm00441278_m1), kam-1 (Mm00516023_m1), and β-actin (Mm00607939_s1). All data were normalized to β-actin cDNA.

[10] = C57BL/6 mice, 50 μg/kg/day i.p. once a day, 7 d after CNV induction
[11] = C57BL/6 mice, 7 d after CNV induction

Structure (SMILES): CC(C)C(=O)N1CCC(NC(=O)Nc2ccc(C(F)(F)F)cc2)CC1
Formulation (mg/mL) EtOH [1]: 20 mg/mL
Formulation (mg/mL) PEG400 [1]: 20 mg/mL
Formulation (mg/mL) Trioleate [1]: 0.625 mg/mL

Structure (SMILES): CCC1OC1C/C=C\C/C=C\C/C=C\C/C=C\C/C=C\CCC(=O)O (centres unmarked) [19,20-EDP]
rolling velocity of PBLs ([4]; PBS 0.94±0.06): 1.44±0.12 μm/s

Structure (SMILES): CCC1OC1C/C=C\C/C=C\C/C=C\C/C=C\CCCC(=O)O (centres unmarked) [17,18-EEQ, 17,18-epoxyeicosatetraenoic acid]
rolling velocity of PBLs ([4]; PBS 0.94±0.06): 1.48±0.16 μm/s

Structure (SMILES): CNC(=O)C(=O)NCCCC/C=C\CCCCCCCCCC(=O)O [Compound C21, (Z)-16-(2-(methylamino)-2-oxoacetamido)hexadec-11-enoic acid]
CNV attenuation compared to EEQ administered alone ([6]; C21 intraperitoneally once a day for 7 days, FIGS. 20A-20C): did not show a significant difference
CNV size in choroidal flat mounts compared to control vehicle [6, 10]: significantly reduced
CNV size in cross-sectional SD-OCT compared to control vehicle [6, 10]: significantly reduced
vascular leakage in CNV lesions (fluorescein angiography) compared to control vehicle [6, 10]: significantly reduced

Structure (SMILES): CCCCCC1OC1C/C=C\C/C=C\C/C=C\CCCC(=O)O (centres unmarked) [14,15-EET, reference compound]
CNV size or severity compared to base line controls [6, 11]: do not affect
rolling velocity of PBLs ([4]; PBS 2.30±0.13): 1.41±0.11 μm/s

Structure (SMILES): CCCCC/C=C\C/C=C\CC1OC1C/C=C\CCCC(=O)O (centres unmarked) [8,9-EET, reference compound]
CNV size or severity compared to base line controls [6, 11]: do not affect
rolling velocity of PBLs ([4]; PBS 2.30±0.13): 1.14±0.15 μm/s

Structure (SMILES): CCOCCOCCOCCCCCNC(=O)NC12CC3CC(CC(C3)C1)C2 [AEPU]
logP [8]: 2.6

Structure (SMILES): CCCCC/C=C\C[C@H]1O[C@H]1C/C=C\C/C=C\CCCC(=O)O [11,12-EET]
mRNA level of E-selectin in CNV lesions compared to PBS injected controls [9]: significant increase
CNV size or severity compared to base line controls [6, 11]: do not affect
rolling velocity of PBLs ([4]; PBS 2.30±0.13): 1.41±0.45 μm/s

Continued, in another order:

Formulation (mg/mL) EtOH [1]: 20 mg/mL
Formulation (mg/mL) PEG400 [1]: 20 mg/mL
Formulation (mg/mL) Trioleate [1]: 0.625 mg/mL
Structure (SMILES): O=C(Nc1ccc(C(F)(F)F)cc1)NC1CCC(Oc2ccc(C(=O)O)cc2)CC1 (centres unmarked)

solubility [2]: 9 ± 4 µM (≈ 2.43 µg/mL)
IC50 [3]: 182 nM
Structure (SMILES): COc1ccc(CNC(=O)NCc2ccccc2)cc1 [BMU]

solubility [2]: 43 ± 5 µM (≈ 10.3 µg/mL)
IC50 [3]: 385 nM
Structure (SMILES): O=C(NCc1ccccc1)NCc1ccccc1 [Compound 1]

IC50 [5]: 534 nM
solubility [2]: 77 ± 9 µM (≈ 20.8 µg/mL)
IC50 [3]: 308 nM
Structure (SMILES): COc1cccc(CNC(=O)NCc2ccccc2)c1 [Compound 2]

Formulation (mg/mL) EtOH [1]: 13 mg/mL
Formulation (mg/mL) PEG400 [1]: 13 mg/mL
Formulation (mg/mL) Trioleate [1]: 1.25 mg/mL
Structure (SMILES): CCCCS(=O)(=O)N1CCC(NC(=O)Nc2ccc(C(F)(F)F)cc2)CC1

IC50 [5]: 222 nM
solubility [2]: 101 ± 37 µM (≈ 30.3 µg/mL)
IC50 [3]: 155 nM
Structure (SMILES): COc1cccc(CNC(=O)NCc2cccc(OC)c2)c1 [Compound 3]

IC50 [3]: 218 nM
Structure (SMILES): COc1ccc(CNC(=O)NCc2ccc(OC)cc2)cc1 [MMU]
Solubility (μM) [7]: 11 ± 2^c μM
